Reference: patent US10046003B2, “Composition for treating neuropathy, a process and a method of treatment thereof” (INDUS BIOTECH PRIVATE LIMITED, priority 2013, dated 2018)

Tested on: PSNL rats
Assay: Motor nerve conduction velocity, comparison of Test composition vs alcoholic extract of fenugreek vs Pinitol stand-alone in PSNL rat model
Format: in vivo
Procedure: To compare efficacy of test Composition with Alcoholic Extract of Fenugreek (30 mg/kg p.o) and Pinitol stand-alone (30 mg/kg) in neuropathy, PSNL rat model is used. The sciatic nerve of the rats is exposed and they received injury by a process where a 4-0 silk suture are inserted into the nerve with ⅜ curve, with a reverse-cutting mini needle and is tightly ligated so that the dorsal ⅓-½ of the nerve thickness are trapped in the ligature. They received only vehicle (Distilled water). Male wistar rats weighing 200-220 g average are used for the study. 500 g of fenugreek seeds is extracted by using alcoholic extraction procedure. This extract is obtained in a dry form by using vacuum evaporation technique. […] When compared with sham operated rats there is significant decrease in nerve conduction velocity in PSNL control rats. […] The data was analysed by one way ANOVA followed by Bonferroni's Multiple Comparison Test, wherein: […]

CO[C@H]1[C@H](O)[C@@H](O)[C@@H](O)[C@H](O)[C@@H]1O [Pinitol stand-alone, 3-O-methyl-1,2,4 cis-3,5,6 transhexahydroxycyclohexanol]
nerve conduction velocity when compared with PSNL control rats (30 mg/kg p.o., day 28): marginal effect
Motor Nerve Conduction Velocity (m/s) (PSNL rats, 30 mg/kg p.o. chronic administration, Day 28 (after treatment)): 13.97 m/s
